Laboratory results published in PubChem BioAssay AID1259411 (Chemical Carcinogenesis Research Information System (CCRIS), 2018).
The source made the active and inactive calls. The rule behind the calls is not given here.

Test system: rodent carcinogenicity bioassays, tumor incidence
Assay: CCRIS carcinogenicity studies
In short: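 NCI-built, expert-reviewed records of carcinogenicity and related test outcomes (mutagenicity, tumor promotion/inhibition) compiled from published and report sources, historical span 1985-2011, not updated.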

In the case of `CCBr`, the carcinogen call (Species: MOUSE, Strain/Sex: B6C3F1/FEMALE, Route: INHALATION, Dose: 0, 100, 200, 400 PPM 6 HR/D 5 D/WK FOR 103 WK (STUDY DURATION: 105 WK), Dose: 0, 100, 200, 400 PPM 6 HR/D 5 D/WK FOR 103 WK (STUDY DURATION: 105 WK), Tumor Site: Type of Lesion: UTERUS: ADENOMA, ADENOCARCINOMA, ADENOMA OR ADENOCARCINOMA, ADENOCARCINOMA OR SQUAMOUS CELL CARCINOMA) is reported as “active; positive”, the carcinogen call (Species: MOUSE, Strain/Sex: B6C3F1/MALE, Route: INHALATION, Dose: 0, 100, 200, 400 PPM 6 HR/D 5 D/WK FOR 104 WK (STUDY DURATION: 106 WK), Dose: 0, 100, 200, 400 PPM 6 HR/D 5 D/WK FOR 104 WK (STUDY DURATION: 106 WK), Tumor Site: Type of Lesion: LUNG: ALVEOLAR/BRONCHIOLAR ADENOMA OR CARCINOMA) is reported as “equivocal” and the carcinogen call (Species: RAT, Strain/Sex: F344/FEMALE, Route: INHALATION, Dose: 0, 100, 200, 400 PPM 6 HR/D 5 D/WK FOR 104 WK (STUDY DURATION: 106 WK), Dose: 0, 100, 200, 400 PPM 6 HR/D 5 D/WK FOR 104 WK (STUDY DURATION: 106 WK), Tumor Site: Type of Lesion: BRAIN: GLIOMA, LUNG: ALVEOLAR/BRONCHIOLAR ADENOMA) is reported as “equivocal”. The carcinogen call (Species: RAT, Strain/Sex: F344/MALE, Route: INHALATION, Dose: 0, 100, 200, 400 PPM 6 HR/D 5 D/WK FOR 104 WK (STUDY DURATION: 106 WK), Dose: 0, 100, 200, 400 PPM 6 HR/D 5 D/WK FOR 104 WK (STUDY DURATION: 106 WK), Tumor Site: Type of Lesion: ADRENAL MEDULLA: PHEOCHROMOCYTOMA, PHEOCHROMOCYTOMA OR MALIGNANT PHEOCHROMOCYTOMA) was “active; positive”.

With `Cn1c([N+](=O)[O-])cnc1C1=NOC2CCCCC12` (stereo not drawn) the carcinogen call (Species: MOUSE, Strain/Sex: SWISS/FEMALE, Route: INTRAPERITONEAL, Dose: 0, 80 UG/G BW 1/D FOR 30 DAYS (STUDY DURATION: LIFETIME), Tumor Site: Type of Lesion: LYMPHATIC SYSTEM: LYMPHOMA) was “active; positive”.

For `O=C(O)CCC(=O)O`, the carcinogen call (Species: RAT, Strain/Sex: F344/FEMALE, Route: ORAL, Dose: 0, 1, 2% IN DRINKING WATER FOR 2 YR (STUDY DURATION: 2 YR), Dose: 0, 1, 2% IN DRINKING WATER FOR 2 YR (STUDY DURATION: 2 YR)) was “inactive; negative” and the carcinogen call (Species: RAT, Strain/Sex: F344/MALE, Route: ORAL, Dose: 0, 1, 2% IN DRINKING WATER FOR 2 YR (STUDY DURATION: 2 YR), Dose: 0, 1, 2% IN DRINKING WATER FOR 2 YR (STUDY DURATION: 2 YR)) was “inactive; negative”.

In the case of `Cc1c(N)nc(C(CC(N)=O)NCC(N)C(N)=O)nc1C(=O)NC(C(=O)NC(C)C(O)C(C)C(=O)NC(C(=O)NCCc1nc(-c2nc(C(=O)NCCC[S+](C)C)cs2)cs1)C(C)O)C(O[C@@H]1O[C@@H](CO)[C@@H](O)[C@H](O)[C@@H]1O[C@H]1O[C@H](CO)[C@@H](O)[C@H](OC(N)=O)[C@@H]1O)c1cnc[nH]1` (stereo partly drawn), the carcinogen call (Species: RAT, Strain/Sex: SPRAGUE-DAWLEY/FEMALE, Route: SUBCUTANEOUS, Dose: 0, 0.35, 0.7, 1.40, 2.8 MG/KG IN SALINE 1/WK FOR 10 WK THEN 1/2 WK FOR 52 WK OR FOR LIFETIME (STUDY DURATION: 650 D), Dose: 0, 0.35, 0.7, 1.40, 2.8 MG/KG IN SALINE 1/WK FOR 10 WK THEN 1/2 WK FOR 52 WK OR FOR LIFETIME (STUDY DURATION: 650 D), Tumor Site: Type of Lesion: KIDNEY: MALIGNANT OR BENIGN TUMOR, INJECTION SITE: MALIGNANT TUMOR) is reported as “active; positive” and the carcinogen call (Species: RAT, Strain/Sex: SPRAGUE-DAWLEY/MALE, Route: SUBCUTANEOUS, Dose: 0, 0.35, 0.70, 1.40, 2.8 MG/KG IN SALINE 1/WK FOR 10 WK THEN 1/2 WK FOR 52 WK OR FOR LIFETIME (STUDY DURATION: 650 D), Dose: 0, 0.35, 0.70, 1.40, 2.8 MG/KG IN SALINE 1/WK FOR 10 WK THEN 1/2 WK FOR 52 WK OR FOR LIFETIME (STUDY DURATION: 650 D), Tumor Site: Type of Lesion: KIDNEY: MALIGNANT OR BENIGN TUMOR, INJECTION SITE: MALIGNANT TUMOR) is reported as “active; positive”.

For `O=Cc1ccccc1`, the carcinogen call (Species: MOUSE, Strain/Sex: B6C3F1/FEMALE, Route: GAVAGE, Dose: 0, 300, 600 MG/KG IN CORN OIL 5 D/WK FOR 103 WK (STUDY DURATION: 104 WK), Dose: 0, 300, 600 MG/KG IN CORN OIL 5 D/WK FOR 103 WK (STUDY DURATION: 104 WK), Tumor Site: Type of Lesion: FORESTOMACH: SQUAMOUS PAPILLOMA) was “active; positive”, the carcinogen call (Species: MOUSE, Strain/Sex: B6C3F1/MALE, Route: GAVAGE, Dose: 0, 200, 400 MG/KG IN CORN OIL 5 D/WK FOR 104 WK (STUDY DURATION: 105 WK), Dose: 0, 200, 400 MG/KG IN CORN OIL 5 D/WK FOR 104 WK (STUDY DURATION: 105 WK), Tumor Site: Type of Lesion: FORESTOMACH: SQUAMOUS PAPILLOMA) was “active; positive” and the carcinogen call (Species: RAT, Strain/Sex: F344/FEMALE, Route: GAVAGE, Dose: 0, 200, 400 MG/KG IN CORN OIL 5 D/WK FOR 103 WK (STUDY DURATION: 105 WK), Dose: 0, 200, 400 MG/KG IN CORN OIL 5 D/WK FOR 103 WK (STUDY DURATION: 105 WK)) was “inactive; negative”. For the same compound, the carcinogen call (Species: RAT, Strain/Sex: F344/MALE, Route: GAVAGE, Dose: 0, 200, 400 MG/KG IN CORN OIL 5 D/WK FOR 103 WK (STUDY DURATION: 105 WK), Dose: 0, 200, 400 MG/KG IN CORN OIL 5 D/WK FOR 103 WK (STUDY DURATION: 105 WK)) was “inactive; negative”.

For `CN(C)N=Nc1ccccc1`, the carcinogen call (Species: RAT, Strain/Sex: SPRAGUE-DAWLEY/FEMALE, Route: INTRAPERITONEAL, TRANSPLACENTAL, Dose: 0, 1 MG/KG ADMINISTERED TO PREGNANT RATS ON DAY 16, 18 AND 20 OF GESTATION (STUDY DURATION: 1 YR), Tumor Site: Type of Lesion: KIDNEY: RENAL MESENCHYMAL TUMOR) was “active; positive”, the carcinogen call (Species: RAT, Strain/Sex: SPRAGUE-DAWLEY/FEMALE, Route: INTRAPERITONEAL, TRANSPLACENTAL, Dose: 0, 10, 30, 60 MG/KG ADMINISTERED TO PREGNANT RATS ON DAY 20 OF GESTATION (STUDY DURATION: 1 YR), Dose: 0, 10, 30, 60 MG/KG ADMINISTERED TO PREGNANT RATS ON DAY 20 OF GESTATION (STUDY DURATION: 1 YR)) was “inactive; negative” and the carcinogen call (Species: RAT, Strain/Sex: SPRAGUE-DAWLEY/MALE,FEMALE, Route: SUBCUTANEOUS, Dose: 50 MG/KG 1/WK FOR LIFE, Tumor Site: Type of Lesion: BRAIN, NERVOUS SYSTEM (CENTRAL)) was “active; positive”. For the same compound, the carcinogen call (Species: RAT, Strain/Sex: SPRAGUE-DAWLEY/MALE, Route: INTRAPERITONEAL, TRANSPLACENTAL, Dose: 0, 1 MG/KG ADMINISTERED TO PREGNANT RATS ON DAY 16, 18 AND 20 OF GESTATION (STUDY DURATION: 1 YR), Tumor Site: Type of Lesion: BRAIN: TUMOR, DENTITIOUS TISSUE: ODONTOMA) was “active; positive”, the carcinogen call (Species: RAT, Strain/Sex: SPRAGUE-DAWLEY/MALE, Route: INTRAPERITONEAL, TRANSPLACENTAL, Dose: 0, 10, 30, 60 MG/KG ADMINISTERED TO PREGNANT RATS ON DAY 20 OF GESTATION (STUDY DURATION: 1 YR), Dose: 0, 10, 30, 60 MG/KG ADMINISTERED TO PREGNANT RATS ON DAY 20 OF GESTATION (STUDY DURATION: 1 YR)) was “inactive; negative” and the carcinogen call (Species: RAT, Strain/Sex: STRAIN-BD, Route: ORAL, SUBCUTANEOUS, Dose: 24.8, 43.4 MG/KG 1/WK (MEAN TOTAL DOSE 1.5 G/KG), Tumor Site: Type of Lesion: BRAIN, NERVOUS SYSTEM) was “active; positive”.

With `CS(=O)(=O)OCCCNCCCOS(C)(=O)=O` the carcinogen call (Species: MOUSE, Strain/Sex: B6C3F1/FEMALE, Route: INTRAPERITONEAL, Dose: 0, 20, 40 MG/KG 3/WK FOR 52 WK (STUDY DURATION: 52 WK), Dose: 0, 20, 40 MG/KG 3/WK FOR 52 WK (STUDY DURATION: 52 WK), Tumor Site: Type of Lesion: SUBCUTANEOUS TISSUE: SQUAMOUS CELL CARCINOMA, HEMATOPOIETIC SYSTEM: MALIGNANT LYMPHOMA) was “equivocal”, the carcinogen call (Species: MOUSE, Strain/Sex: B6C3F1/MALE, Route: INTRAPERITONEAL, Dose: 0, 20, 40 MG/KG 3/WK FOR 52 WK (STUDY DURATION: 52 WK), Dose: 0, 20, 40 MG/KG 3/WK FOR 52 WK (STUDY DURATION: 52 WK), Tumor Site: Type of Lesion: SUBCUTANEOUS TISSUE: SQUAMOUS CELL CARCINOMA, HEMATOPOIETIC SYSTEM: MALIGNANT LYMPHOMA) was “equivocal” and the carcinogen call (Species: RAT, Strain/Sex: SPRAGUE-DAWLEY/FEMALE, Route: INTRAPERITONEAL, Dose: 0, 12 MG/KG 3/WK FOR 52 WK, 24 MG/KG 3/WK FOR 34 WK, 48 MG/KG 3/WK FOR 27 WK (STUDY DURATION: 27-52 WK), Dose: 0, 12 MG/KG 3/WK FOR 52 WK, 24 MG/KG 3/WK FOR 34 WK, 48 MG/KG 3/WK FOR 27 WK (STUDY DURATION: 27-52 WK), Tumor Site: Type of Lesion: PERITONEUM: SARCOMA, FIBROMA OR FIBROSARCOMA) was “equivocal”. The carcinogen call (Species: RAT, Strain/Sex: SPRAGUE-DAWLEY/MALE, Route: INTRAPERITONEAL, Dose: 0, 12 MG/KG 3/WK FOR 52 WK, 24 MG/KG 3/WK FOR 34 WK, 48 MG/KG 3/WK FOR 23 WK (STUDY DURATION: 23-52 WK), Dose: 0, 12 MG/KG 3/WK FOR 52 WK, 24 MG/KG 3/WK FOR 34 WK, 48 MG/KG 3/WK FOR 23 WK (STUDY DURATION: 23-52 WK), Tumor Site: Type of Lesion: PERITONEUM: SARCOMA, FIBROMA OR FIBROSARCOMA) was “equivocal”.
